Measured values published in US20230357253A1, “AGONISTS OF STIMULATOR OF INTERFERON GENES STING” (THE SCRIPPS RESEARCH INSTITUTE, priority 2020, published 2023).

Key:
human STING protein = human STING protein (Homo sapiens (Human), UniProt Q86WV6); test: WT STING binding assay (HTRF, competition with labeled 2′3′cGAMP); details: recombinant 6×His-tagged human STING, three hours at room temperature
Procedure: WT STING binding assay (Cisbio, Catalog #64BDSTGPEH). […] Upon proximity of the two dyes, the excitation of the donor by the flash lamp on the PHERAstar FSX plate reader triggers a Fluorescence Resonance Energy Transfer (FRET) towards the acceptor, which in turn fluoresces at 665 nm. To assess the ability of the synthetic small molecule STING ligands to bind to human STING, a competitive assay format was applied. A 10-point titration of each of the synthetic ligands in 5 uL were transferred into a 384 well plate, followed by 20 uL of assay buffer containing the 6×His-tagged human STING protein and labeled 2′3′cGAMP ligand and incubated for three hours at room temperature. The raw values obtained from the PHERAstar were used to calculate the reported IC50 values (the signal is inversely proportional to the binding of the synthetic ligand) through curve fitting in Genedata. The percent inhibition was calculated based upon the maximal amount of binding by synthetic compound versus the maximum binding of unlabeled 2′3′ cGAMP which was used as a control in each assay.

THP-1 Lucia ISG cells = test: ISRE-luciferase assay (ISG-LUC activation); type: cell-based; details: Homo sapiens, THP1-Lucia ISG, 24 hours, luciferase reporter
Procedure: ISRE-luciferase assay. THP-1 Lucia ISG cells were resuspended in low-serum growth media (2% FBS) at a density of 5×10^5 cells/ml and treated with test article or vehicle (DMSO). 50 μL of cells were seeded into each well of a 384-well white greiner plates and incubated for 24 hours. To evaluate expression of the luciferase reporter, 30 μl of Quanti-luc (Invivogen) detection reagent was added to each well and luminescence was read using an Envision plate reader (Perkin Elmer) set with an integration time of 0.1 seconds. For each cell type, luminescence signals for test article samples were normalized to vehicle-treated samples and reported as relative light units (RLU).

Chain of human STING protein (Q86WV6 whole entry): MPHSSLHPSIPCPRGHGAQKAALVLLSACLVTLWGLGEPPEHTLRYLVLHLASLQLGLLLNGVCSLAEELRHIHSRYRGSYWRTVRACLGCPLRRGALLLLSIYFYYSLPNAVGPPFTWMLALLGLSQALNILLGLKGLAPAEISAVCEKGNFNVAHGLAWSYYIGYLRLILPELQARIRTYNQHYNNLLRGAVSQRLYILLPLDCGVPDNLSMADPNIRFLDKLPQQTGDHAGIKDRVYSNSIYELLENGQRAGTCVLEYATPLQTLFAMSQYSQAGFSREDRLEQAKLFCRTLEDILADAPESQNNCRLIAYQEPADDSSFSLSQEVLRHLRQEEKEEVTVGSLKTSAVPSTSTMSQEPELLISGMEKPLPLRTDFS

IC50 (human STING protein) [nM] | EC50 (THP-1 Lucia ISG cells) [nM] | SMILES
100 to 1000 | > 5000 | O=C(Nc1cc(OCCCCOc2cc(NC(=O)c3ccc4nnnn4n3)c(C(=O)O)cc2F)c(F)cc1C(=O)O)c1ccc(-n2ccnc2)nn1 [Compound 22]
10 to 100 | 50 to 500 | O=C(Nc1cc(CCCc2cc(NC(=O)c3ccc(-n4ccnc4)nn3)c(C(=O)O)nc2Cl)c(F)cc1C(=O)O)c1ccc(-n2ccnc2)nn1 [Compound 52]
10 to 100 | > 5000 | O=C(Nc1cc(OCCCCOc2ccc(C(=O)O)c(NC(=O)c3ccc4nnnn4n3)c2)c(F)cc1C(=O)O)c1ccc(-n2ccnc2)nn1 [Compound 57]
100 to 1000 | > 5000 | COC(=O)c1ccc(OCCCCOc2cc(NC(=O)c3ccc4nnnn4n3)c(C(=O)O)cc2F)cc1NC(=O)c1ccc(-n2ccnc2)nn1 [Compound 62]
10 to 100 | > 5000 | O=C(Nc1cc(OCCCCOc2cc(NC(=O)c3ccc4nnnn4n3)c(C(=O)O)cc2F)ccc1C(=O)O)c1ccc(-n2ccnc2)nn1 [Compound 74]
100 to 1000 | 500 to 5000 | O=C(Nc1cc(CCCc2ccc(C(=O)O)c(NC(=O)c3ccc4nnnn4n3)c2)c(F)cc1C(=O)O)c1ccc(-n2ccnc2)nn1 [Compound 75]
10 to 100 | 50 to 500 | COC(=O)c1cc(F)c(CCCc2cc(NC(=O)c3ccc4nnnn4n3)c(C(=O)O)cc2F)cc1NC(=O)c1ccc(-n2ccnc2)nn1 [Compound 76]
10 to 100 | 50 to 500 | O=C(Nc1cc(CCCc2cc(NC(=O)c3ccc4nnnn4n3)c(C(=O)O)cc2Cl)ccc1C(=O)O)c1ccc(-n2ccnc2)nn1 [Compound 77]

Second part, the compound before the results:

SMILES | IC50 (human STING protein) [nM] | EC50 (THP-1 Lucia ISG cells) [nM]
O=C(Nc1cc(OCCCCOc2cc(NC(=O)c3ccc(-n4ccnc4)nn3)c(C(=O)O)cc2F)c(F)cc1C(=O)O)c1ccc(-n2ccnc2)nn1 [Compound 17] | 100 to 1000 | 500 to 5000
O=C(Nc1cc(OCCCCOc2cc(NC(=O)c3ccc(-n4ccnc4)nn3)c(C(=O)O)cc2F)c(F)cc1C(=O)O)c1ccc(O)nn1 [Compound 18] | 100 to 1000 | > 5000
O=C(Nc1cc(OCCCCOc2ccc(C(=O)O)c(NC(=O)c3ccc4nnnn4n3)c2)ccc1C(=O)O)c1ccc(-n2ccnc2)nn1 [Compound 20] | 100 to 1000 | > 5000
O=c1oc(-c2ccc(-n3ccnc3)nn2)nc2cc(OCCCCOc3cc4nc(-c5ccc(-n6ccnc6)nn5)oc(=O)c4cc3F)ccc12 [Compound 46] | 100 to 1000 | 500 to 5000
COC(=O)c1ccc(CCCc2ccc(C(=O)O)c(NC(=O)c3ccc(-n4ccnc4)nn3)c2)cc1NC(=O)c1ccc(-n2ccnc2)nn1 [Compound 47] | 100 to 1000 | 500 to 5000
O=C(Nc1cc(CCCc2ccc(C(=O)O)c(NC(=O)c3ccc(-n4ccnc4)nn3)c2)ccc1C(=O)O)c1ccc(-n2ccnc2)nn1 [Compound 48] | 10 to 100 | 50 to 500
COc1cc(C(=O)O)c(NC(=O)c2ccc(-n3ccnc3)nn2)cc1OCCCCOc1ccc(C(=O)O)c(NC(=O)c2ccc(-n3ccnc3)nn2)c1 [Compound 49] | 100 to 1000 | > 5000
O=C(Nc1cc(OCCCCOc2cc(NC(=O)c3ccc(-n4ccnc4)nn3)c(C(=O)O)cc2Cl)c(Cl)cc1C(=O)O)c1ccc(-n2ccnc2)nn1 [Compound 50] | 100 to 1000 | 500 to 5000
O=C(Nc1cc(CCCc2ccc(NC(=O)c3ccc(-n4ccnc4)nn3)c(C(=O)O)c2)ccc1C(=O)O)c1ccc(-n2ccnc2)nn1 [Compound 55] | 10 to 100 | 500 to 5000
COc1cc(C(=O)O)c(NC(=O)c2ccc(-n3ccnc3)nn2)cc1OCCCCOc1cc(NC(=O)c2ccc(-n3ccnc3)nn2)c(C(=O)O)cc1F [Compound 58] | 100 to 1000 | 500 to 5000
O=C(Nc1cc(OCCCCOc2cnc(C(=O)O)c(NC(=O)c3ccc(-n4ccnc4)nn3)c2)c(F)cc1C(=O)O)c1ccc2nnnn2n1 [Compound 64] | 10 to 100 | > 5000
O=C(Nc1cc(CCCc2cnc(C(=O)O)c(NC(=O)c3ccc(-n4ccnc4)nn3)c2)c(F)cc1C(=O)O)c1ccc(-n2ccnc2)nn1 [Compound 65] | 10 to 100 | 500 to 5000
O=C(Nc1ccc(CCCc2cc(NC(=O)c3ccc(-n4ccnc4)nn3)c(C(=O)O)cc2F)cc1C(=O)O)c1ccc(-n2ccnc2)nn1 [Compound 71] | 10 to 100 | > 5000
O=C(Nc1cc(OCCCCOc2cc(NC(=O)c3ccc4nnnn4n3)c(C(=O)O)cc2Cl)ccc1C(=O)O)c1ccc(-n2ccnc2)nn1 [Compound 72] | 10 to 100 | 500 to 5000
